Values quoted from earlier work, collected in patent US20130281394A1, “Chemosensory Receptor Ligand-Based Therapies” (ELCELYX THERAPEUTICS, INC., priority 2010, published 2013).

Tested on: bitter receptor
Conditions: not given
In the case of C=CCC(=NOS(=O)(=O)O)S[C@@H]1O[C@H](CO)[C@@H](O)[C@H](O)[C@H]1O (stereo in doubt) [Sinigrin], the Taste quality is given as “Bitter”. For C[S+]([O-])CCCN=C=S (centres unmarked) [3-Methyl-sulfinylpropyl isothiocyanate], the Taste quality is given as “Acrid mustard oils”. For C[S+]([O-])CCCCN=C=S (centres unmarked) [4-Methylsulfinyl butyl isothiocyanate], the Taste quality is given as “Acrid mustard oils”. In the case of C=CCN=C=S [Allyl-isothiocyanate], the Taste quality is listed as “Acrid mustard oils;”. For S=C=NCc1ccccc1 [Benzyl isothiocyanate], the Taste quality is given as “Acrid mustard oils;”. In the case of O=c1c(-c2ccc(O)cc2)coc2cc(O[C@@H]3O[C@H](CO)[C@@H](O)[C@H](O)[C@H]3O)ccc12 [Daidzin], the Taste quality is listed as “Astringent”. For O=C(O[C@@H]1Cc2c(O)cc(O)cc2O[C@@H]1c1ccc(O)c(O)c1)c1cc(O)c(O)c(O)c1 [Epicatechin gallate], the Taste quality is given as “Bitter and astringent”. In the case of O=C(O[C@@H]1Cc2c(O)cc(O)cc2O[C@@H]1c1cc(O)c(O)c(O)c1)c1cc(O)c(O)c(O)c1 [Epigallocatechin gallate], the Taste quality is listed as “Bitter with sweet”. In the case of Oc1cc(O)c2c(c1)O[C@H](c1cc(O)c(O)c(O)c1)[C@H](O)C2 [Epigallocatechin], the Taste quality is given as “Bitter with sweet”. In the case of O=c1c(-c2ccc(O)cc2)coc2cc(O)cc(O)c12 [Genistein], the Taste quality is listed as “Bitter or astringent”. For O=c1c(-c2ccc(O)cc2)coc2cc(O[C@@H]3O[C@H](CO)[C@@H](O)[C@H](O)[C@H]3O)cc(O)c12 [Genistin], the Taste quality is given as “Astringent”. For O=S(=O)(O)ON=C(Cc1c[nH]c2ccccc12)S[C@@H]1O[C@H](CO)[C@@H](O)[C@H](O)[C@H]1O [Glucobrassicin], the Taste quality is given as “Bitter”. In the case of C=CC1CNC(=S)O1 (centres unmarked) [Goitrin 5-vinyl-2-oxazolidine thione, 5-vinyl-2-oxazolidine thione], the Taste quality is given as “Bitter”. In the case of CC1(C)O[C@H]2CC(=O)OC[C@]23[C@H]2CC[C@@](C)([C@@H](O[C@@H]4O[C@H](CO)[C@@H](O)[C@H](O)[C@H]4O)c4ccoc4)[C@@]4(O[C@@H]4C(=O)O)[C@]2(C)C(=O)C[C@@H]13 [Limonin glucoside], the Taste quality is listed as “Tasteless”. In the case of CC1(C)O[C@H]2CC(=O)OC[C@]23[C@H]2CC[C@@]4(C)[C@H](c5ccoc5)OC(=O)[C@H]5O[C@]54[C@]2(C)C(=O)C[C@@H]13 [Limonin], the Taste quality is given as “Bitter”.

Target: T1, sweet receptor (Homo sapiens, UniProt Q7RTX0+Q8TE23)
T1 sequence (Q8TE23 20-839): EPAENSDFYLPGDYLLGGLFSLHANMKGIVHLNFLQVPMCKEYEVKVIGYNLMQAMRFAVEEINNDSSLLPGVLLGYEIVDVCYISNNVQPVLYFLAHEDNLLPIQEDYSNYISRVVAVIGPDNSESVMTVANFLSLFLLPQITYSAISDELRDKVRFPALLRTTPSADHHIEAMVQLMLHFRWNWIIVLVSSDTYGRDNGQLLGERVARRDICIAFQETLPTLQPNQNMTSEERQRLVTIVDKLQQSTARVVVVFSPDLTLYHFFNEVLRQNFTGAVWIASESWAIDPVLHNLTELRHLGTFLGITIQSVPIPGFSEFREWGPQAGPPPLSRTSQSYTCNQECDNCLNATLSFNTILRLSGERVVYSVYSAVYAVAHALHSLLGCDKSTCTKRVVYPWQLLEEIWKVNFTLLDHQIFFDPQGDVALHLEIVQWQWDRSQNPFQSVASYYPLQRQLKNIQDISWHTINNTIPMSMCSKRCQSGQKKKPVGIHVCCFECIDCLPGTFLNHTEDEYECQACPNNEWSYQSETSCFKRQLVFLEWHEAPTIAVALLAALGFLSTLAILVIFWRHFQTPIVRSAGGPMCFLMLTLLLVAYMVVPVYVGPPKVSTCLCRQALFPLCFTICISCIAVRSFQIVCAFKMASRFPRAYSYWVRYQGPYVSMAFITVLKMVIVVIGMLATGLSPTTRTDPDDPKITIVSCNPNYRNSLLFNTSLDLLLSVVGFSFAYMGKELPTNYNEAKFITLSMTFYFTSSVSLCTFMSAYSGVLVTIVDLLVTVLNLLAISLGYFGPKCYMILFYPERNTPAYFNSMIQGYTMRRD
T1 sequence (Q7RTX0 21-852): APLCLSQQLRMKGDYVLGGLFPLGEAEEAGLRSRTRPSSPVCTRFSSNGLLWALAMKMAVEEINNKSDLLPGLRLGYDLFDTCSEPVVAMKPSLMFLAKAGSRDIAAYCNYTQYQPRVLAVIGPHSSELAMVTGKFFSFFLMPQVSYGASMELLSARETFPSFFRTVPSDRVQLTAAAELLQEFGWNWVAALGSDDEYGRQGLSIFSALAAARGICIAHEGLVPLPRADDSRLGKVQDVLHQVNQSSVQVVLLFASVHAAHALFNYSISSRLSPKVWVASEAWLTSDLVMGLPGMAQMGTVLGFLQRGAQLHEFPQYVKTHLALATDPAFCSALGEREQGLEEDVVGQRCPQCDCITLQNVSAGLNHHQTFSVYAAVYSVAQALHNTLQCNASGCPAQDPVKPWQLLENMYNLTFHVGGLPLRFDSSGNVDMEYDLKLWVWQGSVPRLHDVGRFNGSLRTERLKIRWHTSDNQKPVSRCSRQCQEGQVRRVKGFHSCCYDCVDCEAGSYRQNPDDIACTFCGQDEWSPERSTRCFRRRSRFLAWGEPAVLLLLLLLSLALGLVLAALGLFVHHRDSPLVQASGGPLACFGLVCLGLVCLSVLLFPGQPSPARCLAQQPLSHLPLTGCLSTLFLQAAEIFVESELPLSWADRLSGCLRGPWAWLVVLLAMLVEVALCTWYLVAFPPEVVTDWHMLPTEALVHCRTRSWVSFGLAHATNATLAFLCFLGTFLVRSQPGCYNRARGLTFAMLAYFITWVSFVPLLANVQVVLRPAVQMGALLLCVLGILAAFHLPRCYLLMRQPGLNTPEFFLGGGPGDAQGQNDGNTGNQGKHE
Conditions: relative sweetness on a weight comparison basis to sucrose (= 1.0); ranges: varied with the concentration of sucrose
For CC1(C)[C@@H](O[C@@H]2O[C@H](C(=O)O)[C@@H](O)[C@H](O)[C@H]2O[C@@H]2O[C@H](C(=O)O)[C@@H](O)[C@H](O)[C@H]2O)CC[C@]2(C=O)[C@H]3CC[C@@H]4C5=C[C@@](C)(C(=O)O)CC[C@]5(C)CC[C@@]4(C)[C@]3(C)CC[C@@H]12 [Periandrin I], the Sweetness/potency is given as 90. For CC1(C(=O)O)C=C2C3CCC4C5(C=O)CCC(OC6OC(C(=O)O)C(O)C(O)C6OC6OCC(O)C(O)C6O)C(C)(C)C5CCC4(C)C3(C)CCC2(C)CC1 (centres unmarked) [Periandrin V], the Sweetness/potency is listed as 220. For C=C(C)[C@@H]1CC=C(/C=N/O)CC1 [Perillartine], the Sweetness/potency is listed as 370. In the case of COc1ccc([C@H]2Cc3cccc(O)c3C(=O)O2)cc1O [Phyllodulcin], the Sweetness/potency is listed as 400. For C=C(C)C1CCC2(C)C(CC(OC3OCC(O)C(O)C3O)C3C(C(C)(O)C/C=C/C(C)(C)O)CCC32C)C1(C)CCC(=O)O (centres unmarked) [Pterocaryoside B], the Sweetness/potency is listed as 100. In the case of C=C1C[C@@]23CC[C@H]4[C@@](C)(CCC[C@@]4(C)C(=O)O[C@@H]4O[C@H](CO)[C@@H](O)[C@H](O)[C@H]4O[C@@H]4O[C@H](CO)[C@@H](O)[C@H](O)[C@H]4O)[C@@H]2CC[C@]1(O[C@@H]1O[C@H](CO)[C@@H](O)[C@H](O[C@@H]2O[C@H](CO)[C@@H](O)[C@H](O)[C@H]2O)[C@H]1O[C@@H]1O[C@H](CO)[C@@H](O)[C@H](O)[C@H]1O)C3 [Rebaudioside D], the Sweetness/potency is given as 221. In the case of C=C1C[C@@]23CC[C@H]4[C@@](C)(CCC[C@@]4(C)C(=O)O[C@@H]4O[C@H](CO)[C@@H](O)[C@H](O)[C@H]4O[C@@H]4O[C@H](CO)[C@@H](O)[C@H](O)[C@H]4O)[C@@H]2CC[C@]1(O[C@@H]1O[C@H](CO)[C@@H](O)[C@H](O)[C@H]1O[C@@H]1O[C@H](CO)[C@@H](O)[C@H](O)[C@H]1O)C3 [Rebaudioside E], the Sweetness/potency is given as 174. In the case of C=C1C[C@@]23CC[C@H]4[C@@](C)(CCC[C@@]4(C)C(=O)O[C@@H]4O[C@H](CO)[C@@H](O)[C@H](O)[C@H]4O)[C@@H]2CC[C@]1(O[C@@H]1O[C@H](CO)[C@@H](O)[C@H](O)[C@H]1O)C3 [Rubusoside], the Sweetness/potency is given as 115. For Oc1ccc([C@H]2Oc3c(c(O)cc4c3[C@H]3c5c(O)cc(O)cc5O[C@@](c5ccc(O)cc5)(O4)[C@@H]3O)[C@H](c3c(O)cc(O)c4c3O[C@H](c3ccc(O)cc3)[C@@H](O)C4)[C@H]2O)cc1 [Selligueain A], the Sweetness/potency is listed as 35. In the case of C[C@H](CC[C@@H](O[C@@H]1O[C@H](CO[C@@H]2O[C@H](CO)[C@@H](O)[C@H](O)[C@H]2O)[C@@H](O)[C@H](O)[C@H]1O[C@@H]1O[C@H](CO)[C@@H](O)[C@H](O)[C@H]1O)C(C)(C)O)[C@H]1CC[C@@]2(C)[C@@H]3CC=C4[C@@H](CC[C@H](O[C@@H]5O[C@H](CO)[C@@H](O)[C@H](O)[C@H]5O)C4(C)C)[C@]3(C)[C@H](O)C[C@]12C [Siamenoside I], the Sweetness/potency is listed as 563. For C=C1C[C@@]23CC[C@H]4[C@@](C)(CCC[C@@]4(C)C(=O)O)[C@@H]2CC[C@]1(O[C@@H]1O[C@H](CO)[C@@H](O)[C@H](O)[C@H]1O[C@@H]1O[C@H](CO)[C@@H](O)[C@H](O)[C@H]1O)C3 [Steviolbioside], the Sweetness/potency is listed as 90. For C=C1C[C@@]23CC[C@H]4[C@@](C)(CCC[C@@]4(C)C(=O)O[C@@H]4O[C@H](CO)[C@@H](O)[C@H](O)[C@H]4O)[C@@H]2CC[C@]1(O[C@@H]1O[C@H](CO)[C@@H](O)[C@H](O)[C@H]1O[C@@H]1O[C@H](CO)[C@@H](O)[C@H](O)[C@H]1O)C3 [Stevioside], the Sweetness/potency is given as 210. For CC[C@@H](C)C(=O)O[C@@H](C)[C@]1(O)CC[C@]2(O)[C@@H]3CC[C@H]4C[C@@H](O[C@@H]5C[C@H](O)[C@H](O[C@H]6C[C@H](OC)[C@H](O[C@H]7C[C@@H](OC)[C@H](O[C@H]8C[C@@H](OC)[C@H](O[C@@H]9O[C@H](C)[C@@H](O[C@@H]%10O[C@H](CO)[C@@H](O)[C@H](O)[C@H]%10O)[C@H](OC)[C@H]9O)[C@@H](C)O8)[C@@H](C)O7)[C@@H](C)O6)[C@@H](C)O5)CC[C@]4(C)[C@H]3C[C@@H](OC(C)=O)[C@]12C [Telosmoside A15], the Sweetness/potency is given as 1000. In the case of O=C/C=C/c1ccccc1 [Trans-Cinnamaldehyde], the Sweetness/potency is given as 50. For C/C=C/c1ccc(OC)cc1 [trans-Anethole], the Sweetness/potency is given as 13. In the case of Albiziasaponin B, the Sweetness/potency is listed as 600. For Baiyunoside, the Sweetness/potency is listed as 500. For “Brazzein (QDKCKKVYENYPVSKCQLANQCNYDCKLDKHARSGECFYDEKRNLQCICDYCEY; UniProt P56552 1-54, looked up) [sweet protein from Pentadiplandra brazzeana Baillon]”, the Sweetness/potency is listed as 2,000. In the case of Carnosifloside V, the Sweetness/potency is given as 51. For Curculin, the Sweetness/potency is given as 550. In the case of Cyclocarioside A, the Sweetness/potency is listed as 200. For Cyclocaryoside I, the Sweetness/potency is given as 250. In the case of Monellin, the Sweetness/potency is listed as 3,000. In the case of Pentadin, the Sweetness/potency is given as 500. For Periandrin II, the Sweetness/potency is given as 95. For Periandrin IV, the Sweetness/potency is given as 85. In the case of Polypodoside A, the Sweetness/potency is given as 600. In the case of Pterocaryoside A, the Sweetness/potency is listed as 50. In the case of Rebaudioside B, the Sweetness/potency is listed as 150. In the case of Rebaudioside C, the Sweetness/potency is given as 30. In the case of Scandenoside R6, the Sweetness/potency is listed as 54. For Thaumatin, the Sweetness/potency is given as 1,600.
